# Source: patent US20240026461A1, “BCL10 MUTATIONS AS BIOMARKERS FOR TARGETED THERAPY IN B CELL LYMPHOMAS” (priority 2022, published 2024)
# How the values were obtained:
# [1] = tested on: BCL10^E140X ABC-DLBCL xenografts; test: Xenograft, JNJ-67690246 treatment, BCL10^E140X tumors; format: in vivo, mice; conditions: OCI-Ly10 cell line, p.o. 100 mg/kg twice per day
# From the text: FIG. 7A-7K illustrate that subjects with BCL10 truncating mutant lymphomas are hypersensitive to MALT1 protease inhibitors. FIG. 7A graphically illustrates growth inhibition of human diffuse large B-cell lymphoma (HBL1) cells and OCI-Ly10 lymphoma cells expressing wild type or mutant BCL10 proteins in response to MALT1 inhibitor C3. X axis, concentration of compound (M); Y axis, inhibition of cell growth normalized to vehicle treated cells. **p<0.01; ***p<0.001; ****p<0.0001; ns, not significant. […] FIG. 7D graphically illustrates luciferase activity measured in the MALT1 GloSensor reporter cell lines treated with MALT1 inhibitor C3. […] FIG. 7E graphically illustrates luciferase activity measured in the MALT1 GloSensor reporter cell lines treated with MALT1 inhibitor MLT-748. […] FIG. 7F graphically illustrates luciferase activity measured in the MALT1 GloSensor reporter cell lines treated with MALT1 inhibitor JNJ-67690246. […] AUC was calculated with Prism. *p<0.05. FIG. 7J graphically illustrates tumor weight measured at the endpoint of the studies described in FIG. 7G-7I. *p<0.05.
# All mice experiments were approved by Institutional Animal Care & Use Committee (IACUC) at Weill Cornell Medicine and were performed following the IACUC guidelines. […] Tumor volume was monitored 2˜3 times/week with digital caliper and calculated using the following formula. smallest diameter^2×largest diameter×0.5. […]
# HBL1^R58Q = test: Growth inhibition assay (CellTiter Glo), HBL1 cells expressing BCL10 R58Q; format: cell-based; conditions: Homo sapiens, 96 h, read-out: IC50, growth inhibition, MALT1 inhibitors
# Description: DLBCL cell lines were cultured in exponential condition and the cell growth was determined by CellTiter Glo (Promega). 3000-5000 cells were seeded and cultured in each well of 384 well plate for 96 h and treated with compounds every 48 h. Luminescence was read at the endpoint with the Synergy NEO microplate reader (BioTek). The value of compound treated cells was normalized to their vehicle treated controls and then used to calculate IC50 in GraphPad Prism (RRID:SCR_002798).
# Given the distinct functional profiles, CARD11 dependencies, and MALT1 activation effects of the BCL10 CARD and truncation mutants, the inventors designed experiments to evaluate whether, and to what extent, these mutant BCL10 proteins might confer BTK inhibitor resistance. Isogenic ABC-DLBCL cells expressing BCL10WT, BCL10^R58Q and BCL10^E140X proteins were treated with escalating doses of three chemically distinct covalent BTK inhibitors: ibrutinib, acalabrutinib, or zanubrutinib. The cellular proliferation rates of the treated cells were measured using an ATP fluorescence assay after 96 hours of drug exposure.
# Isogenic BCL10^WT, BCL10^R58Q and BCL10^E140X ABC-DLBCLs were exposed to increasing concentrations of each of these compounds for 96 hours.
structure (smiles),measurement,setting,value
Cc1nc(-n2nccn2)c(Cl)cc1NC(=O)c1cnn(-c2cccc3c(=O)[nH]ccc23)c1C(F)(F)F [JNJ-67690246],growth of lymphoma xenografts,[1],significant reduction in growth
same,IC50,HBL1^R58Q,5.77 ± 3.02 µM
